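Five concentrations, 48 hours, 96-well plates. GI50: concentration for 50% inhibition of growth. TGI is the concentration that stops growth completely.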
Experiments:
Assay in all cases: growth of human tumour cells (NCI), 48 h
HCT-15 colon = test system: HCT-15 colon
HL-60(TB) leukemia = test system: HL-60(TB) leukemia
HT29 colon = test system: HT29 colon
K-562 leukemia = test system: K-562 leukemia
KM12 colon = test system: KM12 colon
LOX IMVI melanoma = test system: LOX IMVI melanoma
MOLT-4 leukemia = test system: MOLT-4 leukemia
NCI-H226 lung = test system: NCI-H226 lung
OVCAR-8 ovarian = test system: OVCAR-8 ovarian
SNB-75 CNS = test system: SNB-75 CNS

SMILES	GI50 (HCT-15 colon)	TGI (HCT-15 colon)	GI50 (HL-60(TB) leukemia)	TGI (HL-60(TB) leukemia)	GI50 (HT29 colon)	TGI (HT29 colon)	GI50 (K-562 leukemia)	TGI (K-562 leukemia)	GI50 (KM12 colon)	TGI (KM12 colon)	GI50 (LOX IMVI melanoma)	TGI (LOX IMVI melanoma)	GI50 (MOLT-4 leukemia)	TGI (MOLT-4 leukemia)	GI50 (NCI-H226 lung)	TGI (NCI-H226 lung)	GI50 (OVCAR-8 ovarian)	TGI (OVCAR-8 ovarian)	GI50 (SNB-75 CNS)	TGI (SNB-75 CNS)
CCN(C(=O)c1cc(F)ccc1Oc1cncnc1N1CC2(CCN(CC3CCC(NS(=O)(=O)CC)CC3)CC2)C1)C(C)C (stereo not given)	> 100 µM	> 100 µM	> 100 µM	> 100 µM	> 100 µM	> 100 µM	> 100 µM	> 100 µM	> 100 µM	> 100 µM	> 100 µM	> 100 µM	> 100 µM	> 100 µM	> 100 µM	> 100 µM	> 100 µM	> 100 µM	> 100 µM	> 100 µM
O=C(Nc1ccccc1)NS(=O)(=O)c1ccc(-n2nc3c(c2-c2ccc(Cl)cc2)Cc2ccccc2-3)cc1	18.5 µM	69.7 µM	13.4 µM	35.6 µM	29.8 µM	> 100 µM	4.66 µM	21.9 µM	16 µM	55.1 µM	15.3 µM	46.4 µM	7.05 µM	42.4 µM	15.5 µM	61.9 µM	24.7 µM	86.8 µM	48.7 µM	> 100 µM
COc1cc2c3c(c1OC)-c1c(ccc4c1OCO4)CC3(C#N)N(C(=O)c1ccccc1)CC2 (stereo not given)		> 100 µM		> 100 µM		> 100 µM		> 100 µM		> 100 µM		> 100 µM		> 100 µM		> 100 µM		> 100 µM		49.4 µM
C[C@@H](CO)[C@@H]1CCC=C2CC[C@]3(C)[C@H](CC[C@@H]4[C@@]5(C)CCCNC(C)(C)[C@@H]5CC[C@]43C)[C@H]21	1.49 µM	2.99 µM	1.98 µM	4.54 µM	1.85 µM	4.49 µM	2.01 µM	6.73 µM	1.97 µM	4.09 µM	1.74 µM	3.17 µM	2.5 µM	7.27 µM	14.6 µM	35.3 µM	2.02 µM	4.1 µM	2.19 µM	17.2 µM
O=C(NCc1ccc(Cn2c(=O)sn(-c3ccccc3)c2=O)cc1)OCc1ccc2c(Br)cc(Br)c(O)c2n1	0.222 µM	0.572 µM	0.659 µM	> 20.3 µM	0.539 µM	1.89 µM	0.322 µM	> 100 µM	1.57 µM	3.47 µM	0.171 µM	0.348 µM	0.503 µM	> 22.3 µM	1.02 µM	2.41 µM	0.762 µM	2.44 µM	0.606 µM	1.97 µM
COc1ccc(/C=C2\CCC(CNc3ccc(OC)cc3)C2=O)cc1 (stereo not given)		20.4 µM		17.5 µM		33.2 µM		> 33.3 µM		23.8 µM		28 µM		> 40.8 µM		> 100 µM		36.3 µM		94.5 µM
Clc1ccc(C2SCc3nc4ccccc4n32)cc1Cl (stereo not given)		28.4 µM		40.7 µM		29.9 µM		> 100 µM		27 µM		25.7 µM		> 100 µM		41.3 µM		26.9 µM		14.3 µM
CC1(C)Cc2cc(C(=O)O)c3c(c2C1=O)COCC3		> 100 µM		> 100 µM		> 100 µM		> 100 µM		> 100 µM		> 100 µM		> 100 µM		> 100 µM		> 100 µM		> 100 µM
C1=CC=C2NCCCNC3=CC=CC=CC3=NCCCN=C2C=C1		> 100 µM		> 100 µM		> 100 µM		> 100 µM		> 100 µM		> 100 µM		> 100 µM		> 100 µM		> 100 µM		> 100 µM
CCc1cccc(C(C)C)c1NC(=O)C(=O)C(CC(=O)Nc1ccc(Cl)c(Cl)c1)C(=O)OC (stereo not given)		32.8 µM		> 100 µM		> 100 µM		> 100 µM		> 100 µM		> 100 µM		> 100 µM		> 100 µM		> 100 µM		> 100 µM
CC(=O)O[C@]1(C(C)=O)CC[C@H]2[C@@H]3C=C(C)C4=CC(=O)CC[C@]4(C)[C@H]3CC[C@@]21C	> 100 µM	> 100 µM	12.8 µM	61.6 µM	> 100 µM	> 100 µM	20.7 µM	> 100 µM	> 100 µM	> 100 µM	> 100 µM	> 100 µM	43.2 µM	> 100 µM	> 83.7 µM	> 100 µM	> 75.4 µM	> 100 µM	> 59.8 µM	> 100 µM
S=c1cc(S)sc2c1c(=S)sc1nc3ccccn3c(=S)c12		> 100 µM		97.3 µM		> 100 µM		> 100 µM		> 100 µM		> 100 µM		> 100 µM		> 100 µM		> 100 µM		> 100 µM
COC(=O)C1=C(C)NC(C)=C(C(=O)OC)C1/C=C(Cl)/C=C/c1ccccc1	29.7 µM	> 100 µM	17.8 µM	41.2 µM	18.9 µM	44.9 µM	22.8 µM	54.7 µM	18.4 µM	39.5 µM	15.1 µM	28.8 µM	18.4 µM	41 µM	24.8 µM	73.2 µM	36 µM	> 100 µM	20 µM	54.8 µM
COc1cc(Nc2ccnc(NCCCNc3ccnc4cc(Cl)ccc34)n2)cc(OC)c1	1.51 µM	3.09 µM	2.04 µM	4.54 µM	1.33 µM	3.62 µM	0.52 µM	2.39 µM	2.92 µM	9.46 µM	1.37 µM	2.82 µM	2.23 µM	6.39 µM	2.5 µM	9.16 µM	2.07 µM	5.65 µM	1.31 µM	2.58 µM
COc1ccc(/C(C#N)=C/c2ccc(OC)c(OC)c2)cc1		> 100 µM		> 100 µM		> 100 µM		> 100 µM		> 100 µM		> 100 µM		> 100 µM		> 100 µM		> 100 µM		> 100 µM

— PubChem BioAssay (NCI)
